Test results: patent US11484529B2, “Desmethylanethole trithione derivatives for the treatment of diseases linked to mitochondrial reactive oxygen species (ROS) production” (OP2 Drugs, priority 2017, dated 2022)

Experiments:
[1] = test system: isolated perfused rat heart; experiment: Global ischemia-reperfusion of isolated perfused rat heart (Langendorff); settings: 10 μM AOL pretreatment, 30 min ischemia
Experimental: The consequences of 30 minutes' global ischemia followed by 120 minutes' reperfusion (FIG. 11) on contractility and tissue viability were studied on isolated perfused rat heart pretreated or not (control vehicle) with 10 μM AOL.
All procedures conformed to the UK Animals (Scientific Procedures) Act 1986 and the Guide for the Care and Use of Laboratory Animals published by the National Institutes of Health (NIH Publication No. 85-23. revised 1996). Male Wistar rats (250-300 g) were anesthetized by 3% isoflurane, heparinized and euthanized by a lethal IP injection of pentobarbital (130 mg/kg). […] Langendorff heart perfusions were performed (Garlid et al., 2006. Am. J. Physiol. Heart Circ. Physiol. 291(1):H152-60) and contractility was assessed by continuous measurement of the rate pressure product (RPP) thanks to a balloon placed in the left ventricle and connected to a pressure transducer. […]
At the end of the reperfusion period, hearts were stained with triphenyltetrazolium chloride (TTC): hearts were perfused for 7 minutes at 13 mL/min with a 12% (w/v) TTC solution in order to get a 1% final concentration in the heart. […] The surface of the necrotic and at-risk areas of each side were determined on each photography by planimetry (AlphaEase v5.5), and infarct size was expressed as a percentage of the total cross-sectional area of the heart, since total heart was subjected to ischemia.

Sod2-KO mice = Sod2-KO mice (lifespan, heart SDH activity, liver Oil Red O staining); assay type: in vivo, mouse
Excerpt: Mice deficient in mitochondrial Mn-Superoxide Dismutase (Sod2-KO) on a CD1-background were used. This genetic alteration leads to an adverse phenotype and the death of animals at an average of 8 days old. Mitochondrial superoxide dismutase is a free radical scavenging enzyme which transforms superoxide (highly reactive) into hydrogen peroxide (less reactive), that could then cross mitochondrial membranes and be detoxified by matrix and cytosolic anti-oxidant systems. The aim of this study was to test if AOL could rescue the Sod2-KO phenotype through its activity on IQ superoxide production.
After birth, pups were genotyped (3 day-old) and the litter size was reduced to 6 pups per cage. Animals were then treated (AOL in Kolliphor®—5 mg/kg) or not (Kolliphor® only, noted KOL below). […] Two studies were conducted on two different generations from the same parents: lifespan; and succinate dehydrogenase activity in heart (SDH) and Oil Red O staining in liver. Animals were weighed and injected (intra-peritoneal) daily.
Succinate dehydrogenase activity is a marker of superoxide in the mitochondrial matrix. Thus, a lack of SOD2 is associated with a decrease of SDH activity in heart. The aim of this experiment was to test whether or not AOL could restore SDH activity in KO mice.
However, the direct link between superoxide/hydrogen peroxide production and liver lipid accumulation is not established. The aim of the study was to test the potency of AOL to prevent liver lipid accumulation in Sod2-KO mice.
Animals were injected once a day from 3 days old until their death.
In this study, animals were treated daily (5 mg/kg) from day 3 to day 5. Heart and liver were harvested at day 6.

[2] = test system: isolated rat heart mitochondria; experiment: Mitochondrial ATP synthesis (phosphorylation rate, pH electrode); assay type: biochemical
Experimental: Male Wistar rats (250-325 g; obtained from Janvier Labs, Le Genest-Saint-Isle, France) were killed by stunning and cervical dislocation, and the heart was quickly removed and washed in cold isolation medium containing 100 mM sucrose, 180 mM KCl, 50 mM Tris, 5 mM MgCl2, 10 mM EDTA, and 0.1% (w/v) defatted BSA (pH 7.2).
Isolation of heart mitochondria was performed in a cold chamber. Before homogenization, hearts (about 1.5 g) were minced with scissors and treated for 5 minutes in 5 mL of the same medium supplemented with protease (2 mg of bacterial proteinase type XXIV per mL of isolation buffer) with stirring. The tissue suspension was poured into a 50-mL glass Potter homogenizer, diluted with 20 mL of isolation buffer, then homogenized for 3 minutes using a motorized Teflon pestle. The homogenate was filtered through bolting cloth (Sefar Nitex) to remove debris, and centrifuged at 8,000 g for 10 minutes. The resulting pellet was rinsed with 5 mL of isolation buffer, resuspended in 25 ml of the same buffer, then subjected to low speed centrifugation (400 g) for 8 minutes. […] Protein concentration was determined by the Bradford method (Sigma, kit # B6916) using BSA as standard. […]
ATP synthesis was measured under the same conditions using a high sensitivity pH electrode (Metrohm) as previously described (Gouspillou et al., 2014. Aging Cell. 13(1):39-48).

[3] = 5 mg/kg daily, day 3 to day 5, Oil Red O

SMILES | infarcted tissue rescued (TTC staining) ([1]; 120 min reperfusion) | heart contractility (RPP) relative to control hearts ([1]; after 2 hours of reperfusion) | SDH activity in heart of KO mice (Sod2-KO mice; 5 mg/kg daily, day 3 to day 5) | liver lipid droplets density in KO mice (Sod2-KO mice; [3]) | liver total lipid area in KO mice (Sod2-KO mice; [3]) | lifespan extension compared to untreated KO mice (Sod2-KO mice; 5 mg/kg i.p. daily from 3 days old) | body weight and body weight gain of KO mice (Sod2-KO mice; 5 mg/kg i.p. daily, day 8 to 12) | concentration that completely abolishes phosphorylation rate [2] [µM] | concentrations that do not modify ATP synthesis [2]
COc1ccc(-c2cc(=S)ss2)cc1 [AOL, 5-(4-methoxyphenyl)-3H-1,2-dithiole-3-thione] | about 50% | about three times higher than control hearts | only a very slight increase in SDH activity | lipid droplets density decreased | able to restore the total lipid area | up to 2 days | tends to alleviate this effect |  | 
Oc1ccc(-c2cc(=S)ss2)cc1 [AOX, 5-(4-hydroxyphenyl)-3H-1,2-dithiole-3-thione] |  |  |  |  |  |  |  | 60 | lower than 20 μM
